pEC50, pIC50, pKi: −log10 of the molar value.
Experiments:
guinea pig ileum = biological target: T1, guinea pig ileum (Cavia porcellus, UniProt A0A286Y074); assay: Single shock stimulation of guinea pig ileum: inhibition of longitudinal muscle contractions, or antagonism of the inhibitory action of 8-OH DPAT; conditions: for washings needed to return responses to induced electrical stimulation to control levels: after inhibition of contractions
T1 sequence (A0A286Y074 1-421): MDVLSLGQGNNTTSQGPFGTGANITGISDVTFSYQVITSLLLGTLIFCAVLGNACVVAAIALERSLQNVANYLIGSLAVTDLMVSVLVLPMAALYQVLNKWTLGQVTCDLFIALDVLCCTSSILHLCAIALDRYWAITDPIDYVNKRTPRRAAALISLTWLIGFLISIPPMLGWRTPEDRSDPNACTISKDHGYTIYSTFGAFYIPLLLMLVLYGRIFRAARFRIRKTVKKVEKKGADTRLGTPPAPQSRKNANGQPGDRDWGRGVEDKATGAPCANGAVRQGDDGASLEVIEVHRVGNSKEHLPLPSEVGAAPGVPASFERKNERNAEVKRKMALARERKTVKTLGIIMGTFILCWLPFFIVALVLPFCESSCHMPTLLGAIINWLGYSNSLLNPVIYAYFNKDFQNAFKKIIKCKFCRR
Method: Guinea pigs were anaesthetized with 35 mg of pentobarbital Na, administered i.p. and then sacrificed. Two centimeters of ileum, 10 cm from the cecum, was placed in Krebs-Ringer solution, and longitudinal muscle contractions were measured using a Stateham GT-03 force transducer. Contractions were recorded using a Beckman R-611 recorder.

5-HT1A sites = biological target: T2, 5-HT1A sites (Rattus norvegicus, UniProt P19327); assay: Radioligand binding vs. [³H]8-OH DPAT in rat cortex membranes
T2 construct: 5% (w/v) homogenized rat cortex; from tissue; host or cells: rat cortex membranes
T2 sequence (P19327 1-422): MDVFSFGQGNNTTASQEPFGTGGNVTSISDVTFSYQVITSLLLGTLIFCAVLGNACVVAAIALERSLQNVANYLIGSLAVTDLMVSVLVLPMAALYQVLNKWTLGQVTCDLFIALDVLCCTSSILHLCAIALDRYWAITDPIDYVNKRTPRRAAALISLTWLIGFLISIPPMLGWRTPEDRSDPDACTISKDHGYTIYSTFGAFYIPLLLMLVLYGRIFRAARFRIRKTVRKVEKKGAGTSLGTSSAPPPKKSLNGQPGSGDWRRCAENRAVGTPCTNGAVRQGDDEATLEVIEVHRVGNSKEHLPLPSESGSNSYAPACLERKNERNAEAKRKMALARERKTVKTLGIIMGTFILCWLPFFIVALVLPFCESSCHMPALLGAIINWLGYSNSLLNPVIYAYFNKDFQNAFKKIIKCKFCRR
Method: Binding studies to determine the affinity of both the (R) and (S) enantiomer for 5-HT1A sites were conducted as previously described by Cannon et al., ibid. Rat cortex was homogenized in ice cold solution, centrifuged to isolate the membranes, and then washed. […] Non-specific binding was defined as binding remaining in the presence of 10 µM of 5-HT. […] The results are presented below in the Table together with those obtained in the studies using guinea pig ilea.

CN1C2CCC1CC(OC(=O)C(CO)c1ccccc1)C2 (racemic) [atropine sulphate, reference compound]
effect on contractions induced by transmural single shock stimulation (guinea pig ileum): inhibited

CCCN(CCC)C1CCc2cccc(O)c2C1 (stereo not drawn) [8-OH DPAT, 8-hydroxy-2-di-n-propylaminotetralin, reference compound]
washings needed to return responses to induced electrical stimulation to control levels (guinea pig ileum): Two or three
inhibition at 0.06 µM (guinea pig ileum; read-out: maximal inhibition of contractions induced by transmural stimulation): ~35%

Cc1ccc2c(c1O)-c1cccc3c1[C@@H](C2)N(C)CC3 [(R), (R)-11-hydroxy-10-methylaporphine, reference compound]
pKi (5-HT1A sites): 8.51
washings needed to return responses to induced electrical stimulation to control levels (guinea pig ileum): Two or three
pEC50 (guinea pig ileum; read-out: Single Shock stimulation of guinea pig ileum ED50 for inhibition of contractions, transmural single shock stimulation (0.1 Hz)): 7.30
ED50 for antagonism of inhibition of contraction by 8-OH DPAT (guinea pig ileum; single shock stimulation of guinea pig ileum, concentration of 8-OH-DPAT 0.06 μM): inactive

Cc1ccc2c(c1O)-c1cccc3c1[C@H](C2)N(C)CC3.Cl [(S), (S)-11-Hydroxy-10-methylaporphine hydrochloride]
pKi (5-HT1A sites): 7.41
effect on ileum stimulating properties of nicotine (guinea pig ileum; 1 µM): did not alter
effect on ileum stimulating properties of potassium chloride (guinea pig ileum; 1 µM): did not alter
effect on resting tone of the ileum (guinea pig ileum; 1 µM): did not alter
pIC50 (guinea pig ileum; read-out: ED50 for antagonism of inhibition of contraction by 8-OH DPAT, single shock stimulation of guinea pig ileum, concentration of 8-OH-DPAT 0.06 μM): 7.52
antagonism of inhibition of contractions by the (R)-enantiomer (guinea pig ileum; single shock stimulation of cholinergic neurons): antagonized
Single Shock stimulation of guinea pig ileum ED50 for inhibition of contractions (guinea pig ileum; transmural single shock stimulation (0.1 Hz)): inactive
duration of repeated washings required to re-establish sensitivity of the preparation to the (R)-enantiomer or 8-OH DPAT (guinea pig ileum; washout): 2 to 3 h
